Reference: ChEMBL document CHEMBL5357003, “A Simple Chiral 1H NMR Method for the Discrimination of (R)- and (S)-Cannabichromene in Complex Natural Mixtures and Their Effects on TRPA1 Activity” (J Nat Prod, 2024)
Converted amounts (≈) assume the structure as drawn. The source made the active and inactive calls. The rule behind the calls is not given here.

What was measured:
[1] = biological target: Transient receptor potential cation channel subfamily A member 1 (Rattus norvegicus) (UniProt Q6RI86); assay: Agonist activity at rat TRPA1 expressed in HEK293E cells assessed as calcium mobilization measured every 2 sec for 150 sec by microplate reader analysis; format: cell-based; conditions: filed as agonist
[2] = biological target: Transient receptor potential cation channel subfamily A member 1 (Homo sapiens) (UniProt O75762); assay: Agonist activity at human TRPA1 expressed in HEK293E cells assessed as calcium mobilization measured every 2 sec for 150 sec by microplate reader analysis; format: cell-based; conditions: filed as agonist
[3] = Cytotoxicity against human T24 cells by XTT assay; format: toxicity, cell-based, T-24
[4] = biological target: Transient receptor potential cation channel subfamily A member 1 (Rattus norvegicus, UniProt Q6RI86); assay: Agonist activity at rat TRPA1 expressed in HEK293 cells; format: cell-based
Transient receptor potential cation channel subfamily A member 1, sequence (Q6RI86 whole entry): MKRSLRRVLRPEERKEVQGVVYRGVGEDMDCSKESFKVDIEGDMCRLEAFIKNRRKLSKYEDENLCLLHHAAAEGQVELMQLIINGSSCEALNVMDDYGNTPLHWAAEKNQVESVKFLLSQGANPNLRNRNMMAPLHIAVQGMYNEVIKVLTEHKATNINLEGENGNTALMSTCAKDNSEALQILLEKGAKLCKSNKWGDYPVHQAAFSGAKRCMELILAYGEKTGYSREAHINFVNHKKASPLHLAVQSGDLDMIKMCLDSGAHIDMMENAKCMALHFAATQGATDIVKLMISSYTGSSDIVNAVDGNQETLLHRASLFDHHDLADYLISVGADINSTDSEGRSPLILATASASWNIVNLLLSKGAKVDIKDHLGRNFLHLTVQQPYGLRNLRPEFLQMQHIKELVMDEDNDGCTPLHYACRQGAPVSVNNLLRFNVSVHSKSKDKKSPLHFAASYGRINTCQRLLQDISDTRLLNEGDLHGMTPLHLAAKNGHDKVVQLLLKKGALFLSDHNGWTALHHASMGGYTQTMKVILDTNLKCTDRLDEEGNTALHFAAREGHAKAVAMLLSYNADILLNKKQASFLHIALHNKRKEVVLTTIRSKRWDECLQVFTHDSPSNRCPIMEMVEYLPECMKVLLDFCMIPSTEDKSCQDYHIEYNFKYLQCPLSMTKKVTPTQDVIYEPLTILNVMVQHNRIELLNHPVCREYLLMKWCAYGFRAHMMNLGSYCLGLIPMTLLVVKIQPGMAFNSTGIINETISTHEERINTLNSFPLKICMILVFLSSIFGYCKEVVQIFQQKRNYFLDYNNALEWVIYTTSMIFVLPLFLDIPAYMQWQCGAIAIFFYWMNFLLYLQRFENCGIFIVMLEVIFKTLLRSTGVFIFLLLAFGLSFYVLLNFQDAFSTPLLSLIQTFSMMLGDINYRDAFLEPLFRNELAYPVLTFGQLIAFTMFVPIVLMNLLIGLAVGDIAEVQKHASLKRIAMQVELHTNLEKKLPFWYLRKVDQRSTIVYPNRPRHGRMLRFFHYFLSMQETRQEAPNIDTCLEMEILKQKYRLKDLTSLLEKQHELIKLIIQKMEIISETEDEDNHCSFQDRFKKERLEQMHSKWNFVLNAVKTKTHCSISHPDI

Transient receptor potential cation channel subfamily A member 1 (Homo sapiens), sequence (O75762 whole entry): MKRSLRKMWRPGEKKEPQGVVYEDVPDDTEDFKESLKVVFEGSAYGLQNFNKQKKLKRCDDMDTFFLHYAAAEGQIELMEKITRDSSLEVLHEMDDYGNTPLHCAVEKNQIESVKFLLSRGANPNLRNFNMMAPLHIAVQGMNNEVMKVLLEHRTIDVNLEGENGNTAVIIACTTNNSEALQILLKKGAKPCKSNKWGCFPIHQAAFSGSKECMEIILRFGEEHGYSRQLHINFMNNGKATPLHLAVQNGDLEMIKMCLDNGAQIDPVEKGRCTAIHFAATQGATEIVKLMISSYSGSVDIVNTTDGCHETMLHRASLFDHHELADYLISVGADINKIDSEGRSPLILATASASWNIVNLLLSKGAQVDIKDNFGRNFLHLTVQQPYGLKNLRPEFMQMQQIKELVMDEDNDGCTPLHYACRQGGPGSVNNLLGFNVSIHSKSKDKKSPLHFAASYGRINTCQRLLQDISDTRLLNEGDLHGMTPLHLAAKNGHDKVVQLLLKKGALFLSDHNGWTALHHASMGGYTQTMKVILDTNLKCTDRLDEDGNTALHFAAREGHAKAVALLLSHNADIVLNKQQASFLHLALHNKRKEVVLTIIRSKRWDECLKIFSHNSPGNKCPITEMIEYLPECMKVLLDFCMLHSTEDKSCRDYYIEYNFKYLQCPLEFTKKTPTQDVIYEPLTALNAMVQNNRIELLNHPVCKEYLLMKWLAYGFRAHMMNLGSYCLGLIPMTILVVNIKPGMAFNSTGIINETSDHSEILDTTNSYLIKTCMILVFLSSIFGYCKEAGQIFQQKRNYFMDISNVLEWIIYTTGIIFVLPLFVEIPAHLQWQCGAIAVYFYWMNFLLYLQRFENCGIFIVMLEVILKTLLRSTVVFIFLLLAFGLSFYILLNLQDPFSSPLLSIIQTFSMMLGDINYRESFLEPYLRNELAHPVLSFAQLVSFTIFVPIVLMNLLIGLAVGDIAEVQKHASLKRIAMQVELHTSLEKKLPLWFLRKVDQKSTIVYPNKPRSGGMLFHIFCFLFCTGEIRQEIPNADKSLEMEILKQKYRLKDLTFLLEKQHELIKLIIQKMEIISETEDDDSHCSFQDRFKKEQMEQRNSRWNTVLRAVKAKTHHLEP
Transient receptor potential cation channel subfamily A member 1 (Rattus norvegicus), sequence (Q6RI86 whole entry): as the sequence (Q6RI86 whole entry) above

CCCCCc1cc(O)c2c(c1)O[C@](C)(CCC=C(C)C)C=C2
Activity [1]: Active
Activity [2]: Active

CCCCCc1cc(O)c2c(c1)OC(C)(C)[C@@H]1CCC(C)=C[C@@H]21 [DRONABINOL]
IC50 [3]: 13 µg/mL (≈ 41.5 µM)

CCCCCc1cc(O)c2c(c1)O[C@@](C)(CCC=C(C)C)C=C2
Activity [1]: Active
Activity [2]: Active

CCCCCc1cc(O)c2c(c1)OC(C)(CCC=C(C)C)C=C2 (racemic) [CANNABICHROMENE]
EC50 [4]: 90 nM
IC50 [3]: 13 µg/mL (≈ 41.5 µM)
